Measured values taken from patent publication US6906061B2, “Pharmaceutical agent containing Rho kinase inhibitor” (Mitsubishi Pharma Corporation, priority 1996, dated 2005).
Where a name gives a salt, the structure may show the parent alone. Read-outs that look alike come from different tables or passages of the source.

How the values were obtained:
mouse femoral bone = experiment: Inhibition of bone resorption (in vitro), mouse femoral bone; details: 6 days incubation of ICR mouse femoral bone
Protocol: Inhibition of Bone Resorption (in vitro)
The determination of the in vitro inhibition of bone resorption using mouse femoral bone followed the method below.
The femoral bone of 3-6 week old male ICR mice was aseptically removed, and bone marrow cavity was washed with F12 medium, containing 10% heat inactivated fetal bovine serum, penicillin G calcium (100 units/ml), kanamycin sulfate (60 μg) and 0.15% sodium hydrogencarbonate (hereinafter the medium is to be referred to as culture solution). After washing the bone marrow cavity and then removing the soft tissue adhered to the bone, the bone was subjected to incubation. The test compound was once dissolved in dimethyl sulfoxide (DMSO) to give a 10 mg/ml solution, which was diluted 1000-fold with the culture solution to give a 10 μg/ml solution. The test compounds were respectively added to the concentration shown in Table 7 and, using this culture solution (1.2 ml), the ICR mouse femoral bone was incubated in a 24 well plate for 6 days under the conditions of 5% CO2 gas, 95% air. After the completion of the incubation, the culture supernatant was recovered, and the amount of calcium suspending in the culture supernatant was quantitatively determined by the chelate method using o-cresolphthalein. The bone resorption inhibitory action of the test compound was calculated by the following formula using the incubation of the femoral bone without addition of the test compound as a control. [formula] This experiment was done with 4 cases in each group. As the control, the same amount of DMSO alone as in the case with the addition of the test compound was used.

[1] = system: BALB/c spleen cells stimulated with C57BL/6 spleen cells; experiment: Inhibition of mouse allogenic mixed lymphocyte reaction; assay type: cell-based; details: 4 days culture, MTT, read-out: Mouse allogenic MLR inhibitory activity IC50
Protocol: Inhibition of Mouse Allogenic Mixed Lymphocyte Reaction
A mouse allogenic mixed lymphocyte reaction (hereinafter to be referred to as mouse allogenic MLR) was performed by mixed culture (equal ratio) of the spleen cell of BALB/c mice as the reaction cell and the spleen cell of C57BL/6 mice treated with mitomycin C as stimulated cell.
The reaction cells were prepared by the following method. Spleen was removed from 5-6 week old BALB/c mice and treated with RPMI1640 medium (containing kanamycin sulfate (60 μg/ml), penicillin G potassium (100 units/ml), N-2-hydroxyethylpiperazine-N′-2-ethanesulfonate (10 mM), 0.1% sodium hydrogencarbonate and L-glutamin (2 mM)) supplemented with 5% heat inactivated fetal bovine serum (FBS) to give a single cell suspension of the spleen cell. After hemolysis treatment, the suspension was adjusted to10^7 cells/ml with RPMI1640 medium containing 10^−4 M 2-mercaptoethanol and 10% FBS and used as a reaction cell suspension.
The reaction cell suspension (50 μl) prepared by the above method, stimulated cell suspension (50 μl) and the test compound (100 μl) prepared using RPMI1640 medium containing 10% FBS were added to a 96 well plate and incubated at 37° C. under 5% CO2 gas, 95% air for 4 days.
A pigment assay using 3-(4,5-dimethylthiazol-2-yl)-2,5-diphenyltetrazolium bromide (MTT) was applied for the determination of lymphocyte transformation reaction.
After the completion of culture, the supernatant (100 μl) in each well was removed, and 5 mg/ml MTT solution (20 μl) was added to each well, which was followed by incubation at 37° C. for 4 hours. Then, a 0.01 N hydrochloric acid solution (100 μl) containing 10% sodium dodecyl sulfate was added and the mixture was incubated at 37° C. overnight. The resulting purple crystals of formazan was dissolved and absorbance at 550 nm was measured using a microplate absorption meter, which was used as the index of lymphocyte transformation reaction of the mouse allogenic MLR. The inhibition of mouse allogenic MLR was evaluated by calculating the inhibition percentage by the following formula The results are shown in Table 7.

[2] = system: normal human umberical vascular endothelial cells; experiment: Inhibition of angiogenesis (lumen formation in vascular endothelial cells); assay type: cell-based; details: 18 hours, compared with the control, number rises with inhibition of lumen formation
Protocol: Inhibition of Angiogenesis
The inhibition of angiogenesis was evaluated by using the inhibition of lumen formation in vascular endothelial cell as an index. To be specific, normal human umberical vascular endothelial cells (KURABO […] LTD.) were suspended in E-GMUV medium at 5.5×10^4 cells/ml and 400 μl therefrom was added on matrigel plate (EHS sarcoma-derived reconstructed basement membrane, Collaborative Biomedical Products). Then, the test compound (1 mM solution, 4 μl) was added and the cells were incubated at 37° C. under 5% CO2 gas for 18 hours. After the completion of the incubation, the number of lumen per predetermined area was counted under a microscope. Inasmuch as the number of lumen increases by the inhibition of lumen formation, the test compound was evaluated by comparison of the number of lumen with the control.

[3] = system: hind limb skin blood flow; experiment: Peripheral blood flow increasing action in STZ-induced diabetic rats; assay type: in vivo, rat; details: intravenous
Protocol: Peripheral Blood Flow Increasing Action
Streptozotocin (STZ, 65 mg/kg) was intravenously injected to male SD rats (body weight 200-300 g) to prepare diabetic rats. One month later, STZ-induced diabetic rats were anesthetized with pentobarbital sodium and the blood flow in the hind limb skin was measured with laser blood flowmeter (ALF21R, Advance). The test compound was intravenously administered via catheter dwelled in the carotid arteries, and hind limb skin blood flow increasing action was observed. The blood flow increasing action of the test compound was expressed by increase percentage from the blood flow before administration.

[4] = system: Bovine Aorta Thoracia Rho Kinase; experiment: Rho kinase inhibitory action (inhibition of bovine aorta thoracia Rho kinase); assay type: biochemical; details: test compound 10 μM
Protocol: Rho Kinase Inhibitory Action (Inhibition of Bovine Aorta Thoracia Rho Kinase)
The Rho kinase was prepared from bovine aorta of thorax by partial purification as in the following. The artery was minced and homogenized with a 9-fold amount of 50 mM Tris-hydroxymethylaminomethane (Tris) (pH=7.4), 1 mM dithiothreitol, 1 mM EGTA, 1 mM EDTA, 100 μM p-amidinophenylmethylsulfonyl fluoride, 5 μM E-64, 5 μM leupeptine and 5 μM pepstatin A. The homogenate was centrifuged (10,000×g, 30 minutes) to give supernatant. The supernatant was adsorbed onto a hydroxyapatite column. The column was washed with 0.2M phosphate buffer (pH=6.8). The standard product of Rho kinase was eluted with 0.4M phosphate buffer (pH=6.8). The Rho kinase was assayed as follows.
A reaction mixture (total amount 50 μl) containing 50 mM Tris, 1 mM EDTA, 5 mM MgCl2, 50 μg/ml histone, 10 μM GTPγS, 100 μg/ml Rho, 2 μM [^32P]ATP, the Rho kinase (3 μl) prepared in the above and the test compound was reacted at 30° C. for 5 minutes. The reaction was terminated by the addition of 25% trichloroacetic acid (TCA) solution (1 ml) and the mixture was stood at 4° C. for 30 minutes. Then, the mixture was filtered through a membrane filter (HAWP type, Millipore), and the radioactivity of the filter was counted on a liquid scintillation counter. The inhibitory action of the test compound was calculated from the following formula based on the comparison of the radioactivity with the sample without the test compound (control).

[5] = system: CEM cells (human T cell type established cell); experiment: Inhibition of VLA integrin activation (phorbol ester-induced adhesion of CEM cells to fibronectin); assay type: cell-based; details: CCRF-CEM, concentration 100 μM, PMA-induced adhesion, read-out: Adhesion induction inhibition (%)
Protocol: Inhibition of VLA (Very Late Antigen) Integrin Activation
As the index of the activation by VLA integrin, phorbol ester-induced adhesion of CEM cells (human T cell type established cell) to fibronectin, which is a ligand of VIA integrin, was measured. The inhibitory action on the induced adhesion by the test compound was determined by the following method.
CEM cells were washed with RPMI1640 medium containing 0.5% bovine serum albumin (BSA), 10 mM HEPES, 2 mM L-glutamin, 1 mM sodium pyruvate, 60 μg/ml kanamycin sulfate and 1.5 mg/ml sodium hydrogencarbonate (hereinafter this medium is referred to as culture solution) and suspended in this medium for use in the following experiment. To each well of a 96 well plate coated with human fibronectin were added CEM cells (5×10^4) and the test compound dissolved in the culture solution (final concentration 1-100 μM) to the amount of 100 μl, and the plate was stood at 37° C. for 1 hour. Then, PMA (phorbol 12-myristate 13-acetate, TPA; final concentration 10 ng/ml) and the test compound were added to the amount of 200 μl, and the plate was stood at 37° C. for 30 minutes. Each well was washed twice with the culture solution (200 μL) at 37° C., and the LDH (lactate dehydrogenase) activity of the cells adhered to the plate was determined, whereby the amount of the adhered cell was measured. Based on the results obtained by the above-mentioned method, the inhibitory action of the test compound on the induced adhesion was calculated by the following formula The results are shown in Table 6. Inhibition (%) of adhesion induction=(a−b)/(a−c)×100 • a=number of cells adhered with the addition of PMA • b=number of cells adhered with the addition of test compound and PMA • c=number of cells adhered without stimulation

| melting point | SMILES | further results |
| --- | --- | --- |
| 273 °C (dec.) | O=C(Nc1ccnc2[nH]ccc12)C1CCNCC1 (as salt: hydrochloride) (hydrate or solvate) [Compound 193, N-(1H-pyrrolo[2,3-b]pyridin-4-yl)-4-piperidinecarboxamide] |  |
| 277 °C (dec.) | O=C(Nc1ccnc2[nH]ncc12)C1CCNCC1 (as salt: hydrochloride) (hydrate or solvate) [Compound 194, N-(1H-pyrazolo[3,4-b]pyridin-4-yl)-4-piperidinecarboxamide] |  |
| 235 °C (dec.) | O=C(Nc1ccnc2c1CCN2)C1CCNCC1 (as salt: hydrochloride) (hydrate or solvate) [Compound 197, N-(2,3-dihydro-1H-pyrrolo[2,3-b]pyridin-4-yl)-4-piperidinecarboxamide] |  |
| 272 °C (dec.) | O=C(Nc1ccnc2[nH]ccc12)C1CCN(CCc2ccccc2)CC1 (as salt: hydrochloride) (hydrate or solvate) [Compound 198, N-(1H-pyrrolo[2,3-b]pyridin-4-yl)-1-(2-phenylethyl)-4-piperidinecarboxamide] |  |
| 246 °C (dec.) | N=C(N)N1CCC(C(=O)Nc2ccnc3[nH]ccc23)CC1 (as salt: hydrochloride) (hydrate or solvate) [Compound 199, N-(1H-pyrrolo[2,3-b]pyridin-4-yl)-1-amidino-4-piperidinecarboxamide] |  |
| 260 °C (dec.) | O=C(Nc1ccnc2[nH]ccc12)C1CCN(Cc2ccccc2)CC1 (as salt: hydrochloride) (hydrate or solvate) [Compound 201, N-(1H-pyrrolo[2,3-b]pyridin-4-yl)-1-benzyl-4-piperidinecarboxamide] |  |
| 259 to 261 °C (dec.) | O=C(Nc1ccnc2[nH]ncc12)C1CCN(CCc2ccccc2)CC1 (as salt: hydrochloride) (hydrate or solvate) [Compound 202, N-(1H-pyrazolo[3,4-b]pyridin-4-yl)-1-(2-phenylethyl)-4-piperidinecarboxamide] |  |
| 240 to 244 °C (dec.) | O=C(Nc1ccnc2[nH]ncc12)C1CCN(CCCc2ccccc2)CC1 (as salt: hydrochloride) (hydrate or solvate) [Compound 203, N-(1H-pyrazolo[3,4-b]pyridin-4-yl)-1-(3-phenylpropyl)-4-piperidinecarboxamide] |  |
| 276 °C (dec.) | O=C(Nc1ccnc2[nH]ccc12)C1CCN(CCCc2ccccc2)CC1 (as salt: hydrochloride) [Compound 200, N-(1H-pyrrolo[2,3-b]pyridin-4-yl)-1-(3-phenylpropyl)-4-piperidinecarboxamide] |  |
| 240 to 241 °C | COCn1ncc2c(NC(=O)C3CCNCC3)ccnc21 (hydrate or solvate) [Compound 196, N-(1-methoxymethyl-1H-pyrazolo[3,4-b]pyridin-4-yl)-4-piperidinecarboxamide] |  |
|  | CC(N)[C@H]1CC[C@H](C(=O)Nc2ccnc3[nH]ncc23)CC1 (single isomer, unassigned; (+)) [Compound 112.2HCl, (+)-trans-N-(1H-pyrazolo[3,4-b]pyridin-4-yl)-4-(1-aminoethyl)cyclohexanecarboxamide] | inhibition at 100 µM (mouse femoral bone; 144 h): 75.7%; IC50 ([1]; Mus musculus, Lymphocyte, 96 h): 4400 nM |
|  | CC(C)(N)[C@H]1CC[C@H](C(=O)Nc2ccnc3[nH]ccc23)CC1 [Compound 110.2HCl.H2O, trans-N-(1H-pyrrolo[2,3-b]pyridin-4-yl)-4-(11-amino-1-methylethyl)cyclohexanecarboxamide] | Bone resorption inhibition % (μM) (mouse femoral bone; 100 μM): 74.0(100) %; IC50 [1]: 1100 nM; Number of lumen (10 μM) [2]: 203% |
|  | C[C@@H](N)c1ccc(C(=O)Nc2ccnc3[nH]ncc23)cc1 [Compound 166.2HCl.H2O, (R)-(+)-N-(1H-pyrazolo[3,4-b]pyridin-4-yl)-4-(1-aminoethyl)benzamide] | Increase in skin blood flow ± standard error (%) ([3]; 0.3 μg): 143.2 ± 25.4%; Increase in skin blood flow ± standard error (%) ([3]; 1 μg): 165.9 ± 42.5% |
|  | O=S(=O)(c1cccc2cnccc12)N1CCCNCC1 [Compound 204.2HCl, 1-(5-isoquinolinesulfonyl)homopiperazine] | Inhibition (%) [4]: 93%; inhibition at 100 µM [5]: 82%; Number of lumen (10 μM) [2]: 133% |
